In BindingDB's records for doi:10.1021/jm00163a043 (Michigan Cancer Foundation, 1990):
pKi: −log10 of the molar value.

molecular target: thymidine kinase (Oryctolagus cuniculus); assay: Inhibitory affect against rabbit thymus thymidine kinase

pKi | SMILES
2.80 | Cc1cn([C@H]2CC[C@@H](CO)O2)c(=O)[nH]c1=S
2.77 | Cc1cn([C@H]2C=C[C@@H](CO)O2)c(=O)[nH]c1=S
4.27 | Cc1cn([C@H]2C[C@H](N=[N+]=[N-])[C@@H](CO)O2)c(=O)[nH]c1=S

molecular target: thymidine kinase (Oryctolagus cuniculus); assay: as above; remark: another data set of the same source

pKi | SMILES
3.35 | O=c1ccn([C@H]2C=C[C@@H](CO)O2)c(=O)[nH]1
2.77 | O=c1[nH]c(=S)ccn1[C@H]1C=C[C@@H](CO)O1
2.89 | O=c1[nH]c(=S)ccn1[C@H]1CC[C@@H](CO)O1
